Tests used:
[1] = tested on: GK (Goto-Kakizaki) rats (type II diabetes models); assay: Glucose tolerance test for GK (Goto-Kakizaki) rats by one oral dose; assay type: in vivo, rat; details: 100 mg/kg orally, at 30 and 60 minutes after glucose administration
Experimental: (§1) SD rats (4 weeks old; CLEA JAPAN) were made to fast overnight, and 2 g/kg of glucose was orally administered. Compound A (100 mg/kg) had been intraperitoneally administered 5 minutes before the glucose administration. An appropriate amount of blood was taken at 0 minute, 30 minutes, 60 minutes, and 120 minutes after the glucose administration, and used for the measurement of a blood glucose level and a concentration of plasma insulin.
(§2) For measuring the blood glucose level, a supernatant obtained by mixing blood and 0.33 mol/L perchloric acid (blood:0.33 mol/L perchloric acid=1:10) and centrifuging the mixture (3000×g, 10 minutes, 4° C.) was used. For measuring the concentration of plasma insulin, a supernatant obtained by centrifuging blood (3000×g, 10 minutes, 4° C.) was used. Further, Glucose C test Wako (Wako) was used in the measurement of the blood glucose level, and a rat insulin assay system (Amersham) was used in the measurement of the concentration of plasma insulin.
Then, a glucose tolerance test for GK (Goto-Kakizaki) rats (type II diabetes models with incomplete insulin secretion; 7 weeks old; Charles River Japan) by one oral dose was carried out. The GK rat line was established by selectively mating wistar rats in accordance with an index of a poor tolerance in an oral glucose tolerance test, by Yoshio Goto, et al., School of Medicine, Tohoku University, in 1975. […]

[2] = tested on: insulin promoter activity in mouse pancreatic β cell line NIT1 cells; assay: Insulin promoter reporter (plasmid InsPro) luciferase activity in NIT1 cells; assay type: cell-based; details: compound 30 μmol/L, treatment 31 hours, p<0.01
Experimental: A transfection reagent (LIPOFECTAMINE 2000; GIBCO BRL, or FuGENE6; Boeringer Mannheim) was used to introduce plasmid InsPro (1-10 ng) prepared in Example 2 to mouse pancreatic β cell line NIT1 cells (4×10^4 cells). The trasfected cells were seeded on a 96-well plate. A Dulbecco modified Eagles' medium (DMEM) or F-12 medium containing 10% fetal calf serum (FCS) was used as a medium. After the seeding, the cells were cultured for 18-20 hours. […] After the medium was aspirated, the cells were lysed with a cell lysing solution (cell lysis buffer LCβ; Toyo Ink Mfg.). A luciferase activity of each lysate was measured by a commercially available measuring kit (PicaGene Luminescent kit; Toyo Ink Mfg.) and a measuring apparatus (ML3000 microtiter plate luminometer; Dynatech Laboratories). […] Further, where the above procedure is repeated except for using a cell not expressing the polypeptide for a screening tool, as a control cell, instead of the cell for a screening tool, when the insulin promoter reporter activity is not increased in the control cell, it can be judged that such a test substance can activate the polypeptide consisting of the amino acid sequence of SEQ ID NO: 2.
Next, compounds A-E were evaluated in a manner similar to that described in Example 5. More particularly, a 96-well plate coated with collagen was used as the 96-well plate, and DMEM was used as the medium. […]

SD rats = assay: Glucose tolerance test for SD rats by one oral dose; assay type: in vivo, rat; details: 100 mg/kg intraperitoneally 5 min before 2 g/kg oral glucose, at 30 minutes, p<0.05
Experimental: as §1, §2
FIG. 4 illustrates a time course of the concentration of plasma insulin (unit=ng/mL) after the oral administration of glucose, and FIG. 5 illustrates a time course of the blood glucose level (unit=mg/dL) after the oral administration of glucose. The mark “*” in FIGS. 4 and 5 denotes that a significant difference from the group to which compound A had not been administered was p<0.05 (Student's t-test).

Compound: S=C(OCCc1ccncc1)c1ccccc1 [compound A, 2-(pyridine-4-yl)ethyl thiobenzoate]
- increase of the blood glucose level by the glucose administration [1]: significantly suppressed
- increased value of the reporter activity with respect to control group [2]: ≥ 1.5 times
- concentration of plasma insulin after glucose administration (SD rats): significant increase
- increase of the blood glucose level by the glucose administration (SD rats): significantly suppressed
